Laboratory results from patent US12653799B2, “Compositions and methods for treating Alzheimer's disease” (ELEANORE BENNETT CHARITABLE TRUST #2, priority 2021, dated 2026).

Legend:
[1] = tested on: Akt Ser473 and mTOR Ser2448 phosphorylation in rat primary cortical neurons; experiment: Over-activation test in insulin-stimulated primary cortical neurons; settings: PS48 0.01 to 100 μM for 2 hrs or 24 hrs; 20 nM insulin
Source text: Western blots shown above and corresponding quantified results shown below. n=2.

cells = settings: WST-1
Protocol: (§1) SH-SY5Y cells were washed twice in warm Dulbecco's phosphate-buffered saline (DPBS) and incubated in 1 ml DMEM containing 0.5 mg (3-[4,5-dimethylthiazol-2-yl]-2,5-diphenyltetrazolium bromide) (MTT or WST; Molecular Probes, Eugene, OR) for 2-3 h at 37° C. and 5% CO2. The medium was aspirated and the cells were washed twice with pre-warmed DPBS. The formazan salts were dissolved in 1 ml pure ethanol before use. Cells were homogenized by repetitive pipetting and centrifuged for 5 min at 4500 rpm, and the supernatant collected. Absorbance was read against an ethanol blank at 590 nm.

SH-SY5Y cells = experiment: Cell viability, MTT assay, Aβ42-expressing SH-SY5Y cells
Protocol: FIG. 2A. Cell viability as measured by MTT assay.
as §1

[2] = tested on: Akt Ser 473 phosphorylation in N2a cells; experiment: Insulin sensitization at subthreshold insulin in N2a cells; settings: insulin 3 nM, 15 min; PS48 0.1 to 100 μM, 2 hrs
[3] = tested on: phospho-GSK (GSK3α/β) in SH-SY5Y cells; experiment: Cellular phospho-GSK levels in SH-SY5Y cells; format: cell-based; settings: PS48 1 μM 0 to 2 hours; 0-100 μM 20 min
Protocol: FIG. 8B. PS48 over time (1 μM; 0 to 2 hours) and concentration (20 min; 0-100 μM) was applied to SH-SY5Y cells. No changes in cellular phospho-GSK levels were observed.

[4] = tested on: LTP in rat prefrontal cortical slices; experiment: Long term potentiation (LTP) in acute prefrontal cortical slices perfused with Aβ42 oligomers; format: cell-based; settings: PS48 10 μM
Protocol: FIG. 3A. […] LTP was measured as % baseline excitatory postsynaptic potential (EPSP) amplitudes. […] Washout restored LTP (4).
Minor modifications were made to previous published procedures (Marshall et al., 2017; Molina-Luna et al., 2009). Deeply anesthetized rats (pentobarbital, 50 mg/kg) were decapitated, their brains quickly removed and immersed in cold (5-7° C.), oxygenated (95% O2/5% CO2) artificial cerebrospinal fluid (ACSF) containing: 126 mM NaCl, 3 mM KCl, 1.25 mM NaH2PO4, 1 mM MgSO4, 2 mM CaCl2, 26 mM NaHCO3, 10 mM dextrose. […] Control treatment was DMSO in ACSF (artificial cerebrospinal fluid, 20 μM bicuculline). Extracellular postsynaptic field potentials were recorded using an AxoClamp2B amplifier (Axon instruments) and EX1 differential amplifier (Dagan), and digitized at 10 kHz. Data was acquired using Igor Pro (Wave Metrics) and Neuromatic (neuromatic.thinkrandom.com). The stimulus intensity eliciting 50% of the maximum amplitude (˜32 μA) was used for all measurements before and after LTP induction. Baseline amplitudes were recorded for 20-30 minutes using single field stimuli applied every 30 sec to layer IV-V using concentric bipolar electrodes. Following a stable baseline period, LTP was induced by two sets of high-frequency stimulation (HFS) at 100 Hz, 60 μA (twice stimulus intensity), for 1 sec, 20 sec apart. Extracellular postsynaptic field potentials were measured from layer II-III using glass micropipettes filled with 0.9% NaCl. The amplitude rather than the slope of evoked FPs was used as a measure of the population excitatory synaptic response because in the neocortex the initial slope was contaminated by antidromic stimulation. LTP values were expressed as percentage of mean baseline EPSP±SEM. Paired two-tailed t-tests were used for statistical analysis.
LTP was measured as % baseline excitatory postsynaptic potential (EPSP) amplitudes. […] Washout restored LTP.

C57BL/6 mice = experiment: Safety of PS48 by oral gavage for 14 days; format: in vivo, mouse; settings: oral gavage 1 or 50 mg/kg per day
Protocol: Finally, a series of in vivo experiments was performed to assess safety of treatment with PS48. […] Similarly, when PS48 was given by oral gavage over 2 weeks, there were no signs of toxicity by gross observation, organ specific necropsy, or weight.
Adult C57BL/6 mice (n=6 per group) were administered PS48 for 14 days. A low dose group received 1 mg/kg per day, while a high dose group received 50 mg/kg per day. A negative control group received corn oil. […] Body and organ specific weights were unaffected at necropsy. Fasting serum glucose at trial end was unchanged (˜150 mg/dl).

APP/PS-1 transgenic mice = experiment: Oral glucose tolerance test in APP/PS-1 transgenic mice; format: in vivo, mouse; settings: TG mice on standard diet, approximately 15.5 months; p<0.05
Protocol: At the end of phase 2 (active drug) trial, OGTT was administered to the standard diet animals. Animals were approximately 15.5 months at the time of the assay.

Question: Which results are given for `O=C(O)/C=C(/CCc1ccc(Cl)cc1)c1ccccc1` [PS48, (Z)-5-(4-chlorophenyl)-3-phenylpent-2-enoic acid]?
Answer: Akt Ser473 and mTOR Ser2448 phosphorylation [1]: did not over-activate Akt Ser473 or affect mTOR Ser2448 phosphorylation; LD50 (cells): 250 µM; cell viability, comparison with PPAR agonist (FIG. 2B) (SH-SY5Y cells; PS48 10 μM, pioglitazone 5 μM): compared favorably; cell viability (MTT) of amyloid-bearing cells (SH-SY5Y cells; pretreatment before doxycycline, PS48 10 μM or insulin 100 nM, harvested at 48 hrs): reverted cells to basal condition or better; phosphorylation of Ser 473 at subthreshold insulin [2]: boosting the phosphorylation of Ser 473 to a 20 nM insulin-equivalence response; resting cellular pGSK levels [3]: no effect; LTP (% baseline EPSP amplitude) inhibited by Aβ42 oligomers ([4]; Aβ42 ADDLs 0.5 μM, at the 1-hour mark after Aβ42 application): significantly improved LTP; LTP (% baseline EPSP amplitude) inhibited by Aβ42 oligomers ([4]; by 3 hours): the beneficial effect had disappeared; behavioral changes (C57BL/6 mice): No overt behavioral changes; body and organ specific weights at necropsy (C57BL/6 mice): unaffected; tolerability (C57BL/6 mice): well tolerated; fasting serum glucose at trial end (C57BL/6 mice; unchanged): ~150 mg/dL; response to glucose challenge (OGTT) (APP/PS-1 transgenic mice): helped to normalize the glucose response
